Test results taken from patent publication US20250163044A1, “COMPOUNDS” (PSYLO PTY LTD, priority 2021, published 2025).
“And” between values parts separate entries of the source, which are not always exact repeats. Identical values can stand only once. Like-named read-outs stand apart in the source and are kept apart here.

What was measured:
C57BL/6J mice = assay: Biotelemetry and head-twitch response (HTR) experiments; format: in vivo, Mice (C57BL/6J males); details: male C57BL/6 mice, SC, several doses (0.03 to 30 mg/kg)
Source text: Mice (C57BL/6J males) were purchased from the Jackson Laboratory (Bar Harbor, ME, USA) at 5-6 weeks of age and allowed at least 1-2 weeks to acclimate to the NIDA, Intramural Research Program (IRP), animal research facility in Baltimore, MD, USA. The animal facility is fully accredited by the Association for the Assessment and Accreditation of Laboratory Animal Care, and all procedures were approved by the NIDA IRP Animal Care and Use Committee. Mice were initially group housed 3-5 per cage during acclimation and housed in a 12 h light-dark cycle throughout the study, with lights on at 0700 h. Food and water were available ad libitum except during testing. Cohorts of 20-24 mice were used for each test drug. The mice were subjected to experimental testing once every 1-2 weeks for 2-3 months to complete dose-effect curves and antagonist experiments. A minimum of 7 days between treatments was utilized to avoid any tolerance to effects of repeated drug administration. All drug doses represent the weight of the salt dissolved in 0.9% saline vehicle. Mice were tested first in dose-response studies to assess the effects of each compound at doses from 0.03 to 30 mg/kg s.c. and were subsequently tested in antagonist reversal studies utilizing pretreatment with M100907 and WAY100635. All experiments were conducted from 0900 to 1700 local time during the light phase, as sensitivity of rodents to other tryptamine psychedelics is diurnal, with maximal HTR observed in the middle of the light phase. Experiments were run during the light phase also to avoid any potential influence of melatonin receptor activity on HTR as melatonin and related agonists are known to reduce HTR induced by DOI in rats. For each experiment, mice were acclimated to the testing room in their home cage for at least 1 h prior to experimental sessions. Behavioral test sessions were carried out in Tru Scan mouse locomotor arenas equipped with photobeam arrays (Coulbourn Instruments, Holliston, MA, USA), which were modified with cylindrical inserts and transparent floors useful in detecting mouse HTR.
Subcutaneous Temperature Transponder Implants. At least 1 week prior to the start of the experiments, mice received s.c. implanted temperature transponders (14×2 mm, model IPTT-300, Bio Medic Data Systems, Inc., Seaford, DE, USA) under brief isoflurane anesthesia. Mice were single housed post implant for the remainder of the study to protect the transponder from removal by cage mates. Temperature was determined noninvasively using a handheld receiver that is sensitive to signals emitted from the implanted transponders.
Prior to each experiment, mouse body weight and temperature were recorded. Mice were then placed into testing chambers for acclimation. In dose-response studies, after a brief 5 min acclimation, mouse body temperature was recorded for baseline measurement, mice received s.c. injection of test substance or vehicle, and animals were returned to the testing arena for 30 min. During the session, locomotor activity was monitored via photobeam tracking of movements in the horizontal plane to yield distance traveled in centimeter. HTR was monitored by the analysis of GoPro Hero Black 7 video recordings (120 frames per sec and 960p resolution) using a commercially available software package from Clever Sys Inc. (Reston, VA, USA). 82 Post-treatment body temperature values were also recorded, and temperature data are represented as change from pretreatment baseline.
In antagonist reversal experiments, mice received a s.c. injection of either receptor antagonists or vehicle and were returned to the testing chamber for 30 min. During this period, locomotor activity was monitored to examine the potential effects of antagonist treatment on general behavior or movement. At 30 min after antagonist administration, mice were given test drug or vehicle and returned to the chambers for an additional 30 min of video recording used for analyses. […]

[1] = In vivo pharmacokinetics: plasma and brain exposure after IP administration; set-up: species or system male C57BL/6 mice; details: for Kp at 0.083 h / Kp at 0.5 h: brain/plasma; for Cmax / Tmax / AUC(0-t): mouse, male C57BL/6 mice; for AUC(0-t): read-out: Plasma AUC0-last
Procedure: The systemic exposure of selected examples was studied in non-fasted male C57BL/6 mice weighing between 18.9-25.5 g. Mice had access to food and water ad libitum throughout the pre- and post-dose sampling period.
On the day of dosing, the formulation of each compound was prepared by dissolving solid compound in phosphate buffer saline (50 mM) using vortexing, creating colourless solutions (pH 6.4-6.5) for each compound.
Compounds were dosed to mice by IP injection (10 mL/kg dose volume via a 27G needle; n=9 mice per compound) and blood samples were collected at 5 and 30 min; 1, 2 and 4 h post-dose (n=3 mice per time point for each compound). A maximum of three blood samples were obtained from each mouse, with plasma samples being taken via submandibular bleed (approximately 120 μL). Once collected, blood samples were centrifuged immediately, supernatant plasma was removed, and stored at −80° C. until analysis by LCMS. In addition, at the 5 and 30 min and 4 h post-dose time points, the whole brain was rapidly removed from the carcass soon after the blood collection. The whole brains were blotted to remove excess blood, placed into pre-weighed polypropylene vials, and weighed. The brains were snap frozen in dry ice and subsequently stored frozen (−80° C.) until analysis.
Test compound standard solutions were diluted from a concentrated stock solution (32 mM in H2O) using 50% can in H2O (v/v) and a calibration curve was prepared in a matched matrix to the test samples.
Plasma: The plasma calibration curve was prepared by spiking aliquots of blank mouse plasma (25 μL) with test compound standard solutions (5 μL) and internal standard solution (5 μL of diazepam, 5 μg/mL in 50% acetonitrile in water). Test plasma samples (25 μL) were thawed, mixed, and then spiked with internal standard solution (5 μL). Plasma protein precipitation was performed by addition of acetonitrile (3-fold volume ratio) and thorough vortex mixing. Samples were centrifuged (RCF=9391×g) for 3 minutes and the supernatant (90 μL) was collected for analysis.
Tissue: Pre-weighed tissue samples (brain) were homogenised using a glass rod in buffer containing an EDTA/potassium fluoride solution (0.1 M/4 mg/mL) as a stabilisation cocktail to minimise the potential for ex vivo degradation (3 mL cocktail/g tissue). The tissue homogenate was briefly centrifuged (RCF=79×g) for 10 seconds to separate the foam layer before transferring an aliquot of the tissue homogenate (200 μL) to a fresh Eppendorf tube for sample extraction. Calibration standards were prepared by spiking blank brain homogenate (200 μL) with the solution standards (10 μL) and the internal standard (10 μL). Study samples were similarly prepared, except that acetonitrile (10 μL) was added instead of solution standards to maintain the same volume. Protein precipitation was carried out by the addition of a 3-fold volume of acetonitrile, followed by vortex mixing and centrifugation (RCF=9391×g) for 3 min to recover the supernatant for analysis.
Replicate analysis: Triplicate analytical replicate (ARs) samples were prepared similarly to the standards for each sample type at three concentrations (50, 500 and 2,000 ng/mL) and repeat injections of these ARs were included throughout the analytical run to assess assay performance. The extraction of the test compound from the standards and ARs were conducted as described above.

5-HT2B receptor = target: T1, 5-HT2B receptor (Homo sapiens, UniProt P41595); assay: FLIPR Ca2+ flux functional assay, agonist activity at 5-HT2B; format: cell-based
T1 construct: host or cells: CHO-K1
Procedure: (§1) Activity at 5-HT2A, 5-HT2B and 5-HT2C receptors was determined using a FLIPR Ca2+ flux assay at WuXi AppTec Co. Ltd. (Hong Kong) Discovery Biology Unit according to their standard protocols. Briefly, stably transfected cells expressing the receptor of interest (HEK293 for 5-HT2A and 5-HT2C; CHO-K1 for 5-HT2B) were grown and plated in a 384 well plate and incubated at 37° C. and 5% CO2 overnight. A 250 mM stock solution of probenecid in FLIPR calcium assay buffer (10 mL) was freshly prepared and combined with a fluorescent dye (Fluo-4 Direct) to give a final assay concentration of 2.5 mM. Reference compounds were 4-fold serially diluted and the screening compounds were 3-fold serially diluted in 100% DMSO for 10 points using Agilent Bravo, and 750 nL was added to a 384 well compound plate using Echo along with 30 μL assay buffer. The fluorescent dye was then added to the assay plate along with assay buffer to a final volume of 40 μL. The cell plate was incubated for 50 min at 37° C. and 5% CO2 and placed into the FLIPR Tetra along with the compound plate. 10 μL of references and compounds were then transferred from the compound plate into the cell plate and the fluorescent signal was read.

5-HT2A receptor = target: T2, 5-HT2A receptor (Homo sapiens, UniProt P28223); assay: FLIPR Ca2+ flux functional assay, agonist activity at 5-HT2A; format: cell-based
T2 construct: host or cells: HEK293
Procedure: as §1

5-HT2C receptor = target: T3, 5-HT2C receptor (Homo sapiens, UniProt P28335); assay: FLIPR Ca2+ flux functional assay, agonist activity at 5-HT2C; format: cell-based
T3 construct: host or cells: HEK293
T3 sequence (P28335 33-458): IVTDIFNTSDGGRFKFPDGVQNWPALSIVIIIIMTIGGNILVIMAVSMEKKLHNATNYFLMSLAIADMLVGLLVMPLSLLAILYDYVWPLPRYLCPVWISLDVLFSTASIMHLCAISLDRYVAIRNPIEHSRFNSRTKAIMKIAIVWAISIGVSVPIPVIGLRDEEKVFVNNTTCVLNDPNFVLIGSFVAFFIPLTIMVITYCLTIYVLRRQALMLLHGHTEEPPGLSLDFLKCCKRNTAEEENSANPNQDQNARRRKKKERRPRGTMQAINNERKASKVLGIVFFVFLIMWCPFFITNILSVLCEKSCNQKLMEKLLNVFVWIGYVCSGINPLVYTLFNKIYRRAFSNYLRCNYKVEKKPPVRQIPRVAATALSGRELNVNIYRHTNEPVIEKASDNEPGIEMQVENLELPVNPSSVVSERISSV
Procedure: as §1

[2] = 0.083 h, IP 10 mg/kg, individual mouse, 10 mg/kg
[3] = 0.083 h, IP 10 mg/kg, individual mouse, 10 mg/kg, read-out: Brain Parenchyma Concentration, Individual
[4] = 0.5 h, IP 10 mg/kg, individual mouse, 10 mg/kg
[5] = 0.5 h, IP 10 mg/kg, individual mouse, 10 mg/kg, read-out: Brain Parenchyma Concentration, Individual
[6] = 4 h, IP 10 mg/kg, individual mouse
[7] = male, C57BL/6, mouse, brain, ip, 10 mg/kg, 0.083 h, n = 3, read-out: Brain Parenchyma Concentration, Mean ± SD
[8] = male, C57BL/6, mouse, brain, ip, 10 mg/kg, 0.5 h, n = 3, read-out: Brain Parenchyma Concentration, Mean ± SD
[9] = male, C57BL/6, mouse, ip, 10 mg/kg, 0.083 h, individual mouse, read-out: B:P Ratio, Individual
[10] = male, C57BL/6, mouse, ip, 10 mg/kg, 0.5 h, n = 3, read-out: B:P Ratio, Mean ± SD
[11] = male, C57BL/6, mouse, plasma, ip, 10 mg/kg, 0.083 h, n = 3, read-out: Plasma Concentration, Mean ± SD
[12] = male, C57BL/6, mouse, plasma, ip, 10 mg/kg, 0.5 h, n = 3, read-out: Plasma Concentration, Mean ± SD
[13] = CHO-K1 cells, Ca2+ flux, read-out: 5-HT2B EC50
[14] = HEK293 cells, Ca2+ flux, read-out: 5-HT2A EC50
[15] = HEK293 cells, Ca2+ flux, read-out: 5-HT2C EC50

T1 sequence (P41595 whole entry): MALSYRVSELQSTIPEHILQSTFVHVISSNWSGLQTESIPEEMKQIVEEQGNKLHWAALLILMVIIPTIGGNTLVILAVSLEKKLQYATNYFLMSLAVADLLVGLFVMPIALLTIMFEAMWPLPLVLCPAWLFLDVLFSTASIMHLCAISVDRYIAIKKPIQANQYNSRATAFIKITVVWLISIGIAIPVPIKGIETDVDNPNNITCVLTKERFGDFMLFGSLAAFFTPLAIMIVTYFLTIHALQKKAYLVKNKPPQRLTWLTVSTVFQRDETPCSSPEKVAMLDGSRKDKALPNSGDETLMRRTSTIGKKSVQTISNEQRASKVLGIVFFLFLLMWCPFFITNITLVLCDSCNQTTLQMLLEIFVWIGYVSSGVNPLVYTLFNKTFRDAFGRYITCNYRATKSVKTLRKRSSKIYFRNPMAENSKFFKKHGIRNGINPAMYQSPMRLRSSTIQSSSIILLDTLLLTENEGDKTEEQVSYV
T2 sequence (P28223 whole entry): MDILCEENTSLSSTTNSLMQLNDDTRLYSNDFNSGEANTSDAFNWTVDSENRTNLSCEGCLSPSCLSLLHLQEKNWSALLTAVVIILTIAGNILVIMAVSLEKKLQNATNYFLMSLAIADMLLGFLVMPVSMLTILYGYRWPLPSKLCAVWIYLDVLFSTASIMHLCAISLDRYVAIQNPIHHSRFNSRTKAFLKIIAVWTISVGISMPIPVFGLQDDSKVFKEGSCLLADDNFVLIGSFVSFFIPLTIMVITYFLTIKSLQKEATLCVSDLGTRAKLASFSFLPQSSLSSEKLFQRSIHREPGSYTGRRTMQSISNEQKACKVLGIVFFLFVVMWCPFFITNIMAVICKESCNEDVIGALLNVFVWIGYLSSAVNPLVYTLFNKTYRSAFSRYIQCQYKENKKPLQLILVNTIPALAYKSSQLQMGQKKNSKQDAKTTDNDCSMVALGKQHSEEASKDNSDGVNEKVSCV

Row | SMILES | Head-twitch response (HTR) (C57BL/6J mice) | Tolerability (temperature, locomotor activity) (C57BL/6J mice) | B:P Ratio, Individual [1, 2] | Plasma Concentration, Individual [1, 2] | concentration at 0.5 h [1, 3] | B:P Ratio, Individual [1, 4] | Plasma Concentration, Individual [1, 4] | concentration at 0.5 h [1, 5] | Brain Parenchyma Concentration, Individual [1, 6] | Plasma Concentration, Individual [1, 6] | concentration at 0.083 h [1, 7] | concentration at 0.5 h [1, 8] | Kp at 0.083 h [1, 9] | Kp at 0.5 h [1, 10] | concentration at 0.083 h [1, 11] | concentration at 0.5 h [1, 12] | Cmax ([1]; plasma, IP 10 mg/kg) | Emax (5-HT2B receptor; CHO-K1 cells, Ca2+ flux) | Emax (5-HT2A receptor; HEK293 cells, Ca2+ flux) | Emax (5-HT2C receptor; HEK293 cells, Ca2+ flux) | other results
1 | COc1ccc2[nH]cc(CCN(C)C)c2n1 [Example P-1, 2-(5-methoxy-1H-pyrrolo[3,2-b]pyridin-3-yl)-N,N-dimethylethan-1-amine] | not promoting increased head-twitch response | well-tolerated | 0.24 and 0.34 | 4300 nM and 7630 nM | 2060 nM and 1040 nM and 2560 nM | 0.30 and 2.3 and 1.0 | 1030 nM and 307 nM and 420 nM | 307 nM and 701 nM and 437 nM | <LLQ | <LLQ | 1890 ± 776 nM | 482 ± 201 nM | 0.27 | 1.2 ± 1 | 6530 ± 1930 nM | 585 ± 387 nM | 6530 nM | -1.07% | 47.7% | 74.3% | B:P Ratio, Mean ± SD ([1]; 0.083 h, IP 10 mg/kg, n = 3): 0.28 ± 0.048; concentration at 0.083 h ([1]; male, C57BL/6, mouse, plasma, ip, 10 mg/kg, 0.083 h, individual mouse, read-out: Plasma Concentration, Individual): 7660 nM; Tmax ([1]; plasma, IP 10 mg/kg): 5 min; AUC(0-t) ([1]; plasma, IP 10 mg/kg): 1.37 µM·h; EC50 (5-HT2B receptor): > 10000 nM; EC50 (5-HT2A receptor): 34.9 nM; EC50 (5-HT2C receptor): 18.8 nM
2 | COc1ccnc2[nH]cc(CCN(C)C)c12 [Example P-4, 2-(4-methoxy-1H-pyrrolo[2,3-b]pyridin-3-yl)-N,N-dimethylethan-1-amine] | not promoting increased head-twitch response | well-tolerated | – | – | – | – | – | – | – | – | – | – | – | – | – | – | – | -0.27% | 35% | 17.9% | EC50 (5-HT2B receptor; [13]): > 10000 nM; EC50 (5-HT2A receptor; [14]): 1230 nM; EC50 (5-HT2C receptor; [15]): 241 nM
3 | COc1nccc2[nH]cc(CCN(C)C)c12 [Example P-5, 2-(4-methoxy-1H-pyrrolo[3,2-c]pyridin-3-yl)-N,N-dimethylethan-1-amine] | – | – | 0.19 and 0.16 | 5880 nM and 1970 nM and 8280 nM | 230 nM and 365 nM and 1360 nM | 2.5 and 2.4 | 985 nM and 776 nM | 2420 nM and 1860 nM | <LLQ | <LLQ | 984 ± 540 nM | 1970 ± 414 nM | 0.21 | 2.3 ± 0.26 | 5380 ± 3180 nM | 859 ± 111 nM | 5380 nM | -0.87% | 56.2% | 79.1% | concentration at 0.5 h ([1]; male, C57BL/6, mouse, brain, ip, 10 mg/kg, 0.5 h, individual mouse, read-out: Brain Parenchyma Concentration, Individual): 1610 nM; Kp at 0.083 h ([1]; male, C57BL/6, mouse, ip, 10 mg/kg, 0.083 h, n = 3, read-out: B:P Ratio, Mean ± SD): 0.19 ± 0.022; Kp at 0.5 h ([1]; male, C57BL/6, mouse, ip, 10 mg/kg, 0.5 h, individual mouse, read-out: B:P Ratio, Individual): 2; concentration at 0.5 h ([1]; male, C57BL/6, mouse, plasma, ip, 10 mg/kg, 0.5 h, individual mouse, read-out: Plasma Concentration, Individual): 815 nM; Tmax ([1]; plasma, IP 10 mg/kg): 5 min; AUC(0-t) ([1]; plasma, IP 10 mg/kg): 1.63 µM·h; EC50 (5-HT2B receptor; [13]): > 10000 nM; EC50 (5-HT2A receptor; [14]): 24.4 nM; EC50 (5-HT2C receptor; [15]): 38.4 nM
